According to ChEMBL document CHEMBL4507262, “Data for DCP probe A-1596586” (2021):
Activity calls are given as the source filed them. The rule behind the calls is not given here.

Columns and labels:
[1] = target: voltage-gated Na+ channel (site 2) (Rattus norvegicus, UniProt F1LQQ7+O08562+O88420+O88457+P04774+P04775+P08104+P15389+P15390+Q62968); test: Na+ channel (site 2) Eurofins-Cerep binding assay; format: protein assay; parameters: incubation time 60 min, incubation temperature 37°C, ligand concentration 10 nM; conditions: rat cerebral cortex, probe [3H]batrachotoxin (10 nM), compound concentration 10 uM, read-out: % Inhibition of Control Specific Binding (Mean n=2)
[2] = target: Epithelial discoidin domain-containing receptor 1 (Homo sapiens) (UniProt Q08345); conditions: Compound concentration 1000.0 nM
Chain of Epithelial discoidin domain-containing receptor 1 (Homo sapiens) (Q08345 whole entry, the tested form may be a part): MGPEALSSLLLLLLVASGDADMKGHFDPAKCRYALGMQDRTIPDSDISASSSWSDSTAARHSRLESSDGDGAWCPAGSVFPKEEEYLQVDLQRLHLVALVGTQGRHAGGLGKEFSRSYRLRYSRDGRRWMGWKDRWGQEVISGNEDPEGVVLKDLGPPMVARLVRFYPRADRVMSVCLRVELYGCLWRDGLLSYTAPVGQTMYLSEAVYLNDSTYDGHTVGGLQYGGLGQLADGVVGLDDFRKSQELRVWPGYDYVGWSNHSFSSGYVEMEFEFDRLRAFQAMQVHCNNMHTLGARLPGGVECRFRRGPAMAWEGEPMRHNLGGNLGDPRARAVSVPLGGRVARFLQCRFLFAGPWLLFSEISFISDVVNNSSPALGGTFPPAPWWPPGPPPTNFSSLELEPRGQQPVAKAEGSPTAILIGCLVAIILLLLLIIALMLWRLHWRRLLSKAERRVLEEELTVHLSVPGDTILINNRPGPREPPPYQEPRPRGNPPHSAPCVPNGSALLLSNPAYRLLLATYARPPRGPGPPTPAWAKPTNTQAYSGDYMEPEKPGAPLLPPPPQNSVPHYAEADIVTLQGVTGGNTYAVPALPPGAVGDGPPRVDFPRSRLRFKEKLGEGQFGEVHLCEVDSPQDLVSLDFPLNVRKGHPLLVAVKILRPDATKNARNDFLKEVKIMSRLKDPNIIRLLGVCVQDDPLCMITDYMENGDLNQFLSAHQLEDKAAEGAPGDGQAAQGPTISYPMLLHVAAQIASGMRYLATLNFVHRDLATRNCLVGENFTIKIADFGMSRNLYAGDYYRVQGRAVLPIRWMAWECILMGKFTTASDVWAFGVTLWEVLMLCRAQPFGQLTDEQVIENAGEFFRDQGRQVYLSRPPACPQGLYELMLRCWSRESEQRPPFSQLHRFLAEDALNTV

[3] = target: Dual specificity mitogen-activated protein kinase kinase 3 (Homo sapiens) (UniProt P46734); conditions: Compound concentration 1000.0 nM
[4] = target: Serine/threonine-protein kinase WNK4 (Homo sapiens) (UniProt Q96J92); conditions: Compound concentration 1000.0 nM
[5] = target: Maternal embryonic leucine zipper kinase (Homo sapiens) (UniProt Q14680); conditions: Compound concentration 1000.0 nM
Chain of Maternal embryonic leucine zipper kinase (Homo sapiens) (Q14680 whole entry, looked up): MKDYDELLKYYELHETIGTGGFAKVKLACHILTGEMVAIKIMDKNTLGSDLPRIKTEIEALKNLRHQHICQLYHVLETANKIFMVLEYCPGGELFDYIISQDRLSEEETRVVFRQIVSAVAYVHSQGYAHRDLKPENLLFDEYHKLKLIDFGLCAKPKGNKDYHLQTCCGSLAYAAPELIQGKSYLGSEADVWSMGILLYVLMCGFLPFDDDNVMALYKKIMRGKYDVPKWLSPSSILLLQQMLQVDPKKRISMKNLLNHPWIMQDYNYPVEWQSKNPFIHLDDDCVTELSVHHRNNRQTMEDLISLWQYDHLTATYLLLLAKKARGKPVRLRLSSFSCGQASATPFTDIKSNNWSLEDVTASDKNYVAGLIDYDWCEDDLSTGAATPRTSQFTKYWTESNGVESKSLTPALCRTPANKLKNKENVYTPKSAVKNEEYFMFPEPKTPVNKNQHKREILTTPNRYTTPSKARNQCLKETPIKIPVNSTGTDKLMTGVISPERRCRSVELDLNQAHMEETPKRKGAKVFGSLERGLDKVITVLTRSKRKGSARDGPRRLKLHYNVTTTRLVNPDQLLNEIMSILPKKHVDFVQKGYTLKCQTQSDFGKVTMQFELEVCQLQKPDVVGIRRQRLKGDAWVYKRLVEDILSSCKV

[6] = target: Insulin receptor (Homo sapiens) (UniProt P06213); conditions: Compound concentration 1000.0 nM
[7] = target: Adenosine receptor A2b (Homo sapiens) (UniProt P29275); test: A2B (h) Eurofins-Cerep binding assay; parameters: ligand concentration 5 nM; conditions: filed as antagonist, Compound concentration 10.0 uM
[8] = target: Focal adhesion kinase 1 (Homo sapiens) (UniProt Q05397); conditions: Compound concentration 1000.0 nM
[9] = target: Serine/threonine-protein kinase Nek3 (Homo sapiens) (UniProt P51956); conditions: Compound concentration 1000.0 nM
[10] = target: Mitogen-activated protein kinase 12 (Homo sapiens) (UniProt P53778); conditions: Compound concentration 1000.0 nM
[11] = target: T1, Alpha-2A adrenergic receptor (Homo sapiens) (UniProt P08913); test: Alpha2A (h) Eurofins-Cerep binding assay; parameters: ligand concentration 1 nM; conditions: filed as antagonist, Compound concentration 10.0 uM
T1 sequence (whole entry): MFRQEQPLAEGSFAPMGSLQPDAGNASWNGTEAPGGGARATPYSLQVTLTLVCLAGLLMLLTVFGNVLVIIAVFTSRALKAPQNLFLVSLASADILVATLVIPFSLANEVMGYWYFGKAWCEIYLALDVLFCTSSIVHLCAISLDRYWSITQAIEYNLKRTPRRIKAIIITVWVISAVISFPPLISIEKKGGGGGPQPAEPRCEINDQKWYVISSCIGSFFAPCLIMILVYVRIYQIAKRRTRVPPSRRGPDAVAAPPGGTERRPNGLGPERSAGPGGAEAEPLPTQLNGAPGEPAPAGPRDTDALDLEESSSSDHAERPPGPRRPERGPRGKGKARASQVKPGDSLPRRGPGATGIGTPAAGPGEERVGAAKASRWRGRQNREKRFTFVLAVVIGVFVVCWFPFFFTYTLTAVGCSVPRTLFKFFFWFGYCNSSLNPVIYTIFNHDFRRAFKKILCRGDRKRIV

[12] = target: Activated CDC42 kinase 1 (Homo sapiens) (UniProt Q07912); conditions: Compound concentration 1000.0 nM
Chain of Activated CDC42 kinase 1 (Homo sapiens) (Q07912 whole entry, looked up, canonical isoform): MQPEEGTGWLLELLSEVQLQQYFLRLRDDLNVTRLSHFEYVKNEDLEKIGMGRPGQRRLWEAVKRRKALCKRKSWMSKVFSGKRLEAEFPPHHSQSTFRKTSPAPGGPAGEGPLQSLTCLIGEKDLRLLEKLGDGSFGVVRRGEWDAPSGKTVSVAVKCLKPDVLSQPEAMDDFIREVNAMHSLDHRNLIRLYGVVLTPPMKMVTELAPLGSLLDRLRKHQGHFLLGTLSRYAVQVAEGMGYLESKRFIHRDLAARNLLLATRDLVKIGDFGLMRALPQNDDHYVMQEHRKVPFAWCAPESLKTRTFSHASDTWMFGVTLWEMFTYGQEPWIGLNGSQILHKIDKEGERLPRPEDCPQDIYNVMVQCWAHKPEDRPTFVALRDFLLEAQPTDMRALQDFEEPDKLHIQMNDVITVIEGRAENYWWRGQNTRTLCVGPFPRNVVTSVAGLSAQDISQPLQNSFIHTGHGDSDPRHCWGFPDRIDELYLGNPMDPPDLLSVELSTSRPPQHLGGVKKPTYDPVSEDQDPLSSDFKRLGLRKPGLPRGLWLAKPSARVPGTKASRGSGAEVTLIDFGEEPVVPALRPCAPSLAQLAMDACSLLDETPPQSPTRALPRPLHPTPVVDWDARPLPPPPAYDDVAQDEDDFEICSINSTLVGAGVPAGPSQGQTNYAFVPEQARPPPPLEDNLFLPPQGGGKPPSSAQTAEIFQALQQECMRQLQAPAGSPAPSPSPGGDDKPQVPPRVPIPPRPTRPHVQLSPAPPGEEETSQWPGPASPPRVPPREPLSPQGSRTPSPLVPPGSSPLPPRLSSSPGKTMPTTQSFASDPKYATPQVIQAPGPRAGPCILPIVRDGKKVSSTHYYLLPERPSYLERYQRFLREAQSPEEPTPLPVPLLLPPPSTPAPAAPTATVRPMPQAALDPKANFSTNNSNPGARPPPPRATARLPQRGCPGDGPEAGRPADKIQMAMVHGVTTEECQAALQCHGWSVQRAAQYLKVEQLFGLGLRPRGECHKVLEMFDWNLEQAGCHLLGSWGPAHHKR

[13] = tested on: Phosphatidylinositol 4,5-bisphosphate 3-kinase catalytic subunit alpha isoform (Homo sapiens), P42336 [C420R]; conditions: Compound concentration 1000.0 nM
[14] = target: Serine/threonine-protein kinase LATS2 (Homo sapiens) (UniProt Q9NRM7); conditions: Compound concentration 1000.0 nM
[15] = target: Casein kinase I isoform gamma-1 (Homo sapiens) (UniProt Q9HCP0); conditions: Compound concentration 1000.0 nM
[16] = target: Tyrosine-protein kinase receptor TYRO3 (Homo sapiens) (UniProt Q06418); conditions: Compound concentration 1000.0 nM
[17] = target: Mu-type opioid receptor (Homo sapiens) (UniProt P35372); test: mu (MOP) (h) Eurofins-Cerep binding assay; parameters: ligand concentration 0.5 nM; conditions: filed as agonist, Compound concentration 10.0 uM
[18] = target: Peroxisome proliferator-activated receptor gamma (Homo sapiens) (UniProt P37231); test: PPARgamma (h) Eurofins-Cerep binding assay; parameters: ligand concentration 5 nM; conditions: filed as agonist, Compound concentration 10.0 uM
[19] = target: Cystic fibrosis transmembrane conductance regulator (Homo sapiens, UniProt P13569); test: HBE-TECC (Human Bronchial Epithelial- Trans-Epithelial Current Clamp) assay
[20] = target: P2X receptor (Rattus norvegicus) (UniProt P51579+P49653+P51578+Q64663+P47824+P51577+P49654); test: P2X Eurofins-Cerep binding assay; format: protein assay; parameters: ligand concentration 3 nM; conditions: filed as agonist, Compound concentration 10.0 uM
[21] = target: Serine/threonine-protein kinase DCLK2 (Homo sapiens) (UniProt Q8N568); conditions: Compound concentration 1000.0 nM
[22] = target: Adenosine receptor A1 (Homo sapiens) (UniProt P30542); test: A1 (h) Eurofins-Cerep binding assay; parameters: ligand concentration 1 nM; conditions: filed as antagonist, Compound concentration 10.0 uM
[23] = target: TRAF2 and NCK-interacting protein kinase (Homo sapiens) (UniProt Q9UKE5); conditions: Compound concentration 1000.0 nM
Chain of TRAF2 and NCK-interacting protein kinase (Homo sapiens) (Q9UKE5 whole entry, looked up): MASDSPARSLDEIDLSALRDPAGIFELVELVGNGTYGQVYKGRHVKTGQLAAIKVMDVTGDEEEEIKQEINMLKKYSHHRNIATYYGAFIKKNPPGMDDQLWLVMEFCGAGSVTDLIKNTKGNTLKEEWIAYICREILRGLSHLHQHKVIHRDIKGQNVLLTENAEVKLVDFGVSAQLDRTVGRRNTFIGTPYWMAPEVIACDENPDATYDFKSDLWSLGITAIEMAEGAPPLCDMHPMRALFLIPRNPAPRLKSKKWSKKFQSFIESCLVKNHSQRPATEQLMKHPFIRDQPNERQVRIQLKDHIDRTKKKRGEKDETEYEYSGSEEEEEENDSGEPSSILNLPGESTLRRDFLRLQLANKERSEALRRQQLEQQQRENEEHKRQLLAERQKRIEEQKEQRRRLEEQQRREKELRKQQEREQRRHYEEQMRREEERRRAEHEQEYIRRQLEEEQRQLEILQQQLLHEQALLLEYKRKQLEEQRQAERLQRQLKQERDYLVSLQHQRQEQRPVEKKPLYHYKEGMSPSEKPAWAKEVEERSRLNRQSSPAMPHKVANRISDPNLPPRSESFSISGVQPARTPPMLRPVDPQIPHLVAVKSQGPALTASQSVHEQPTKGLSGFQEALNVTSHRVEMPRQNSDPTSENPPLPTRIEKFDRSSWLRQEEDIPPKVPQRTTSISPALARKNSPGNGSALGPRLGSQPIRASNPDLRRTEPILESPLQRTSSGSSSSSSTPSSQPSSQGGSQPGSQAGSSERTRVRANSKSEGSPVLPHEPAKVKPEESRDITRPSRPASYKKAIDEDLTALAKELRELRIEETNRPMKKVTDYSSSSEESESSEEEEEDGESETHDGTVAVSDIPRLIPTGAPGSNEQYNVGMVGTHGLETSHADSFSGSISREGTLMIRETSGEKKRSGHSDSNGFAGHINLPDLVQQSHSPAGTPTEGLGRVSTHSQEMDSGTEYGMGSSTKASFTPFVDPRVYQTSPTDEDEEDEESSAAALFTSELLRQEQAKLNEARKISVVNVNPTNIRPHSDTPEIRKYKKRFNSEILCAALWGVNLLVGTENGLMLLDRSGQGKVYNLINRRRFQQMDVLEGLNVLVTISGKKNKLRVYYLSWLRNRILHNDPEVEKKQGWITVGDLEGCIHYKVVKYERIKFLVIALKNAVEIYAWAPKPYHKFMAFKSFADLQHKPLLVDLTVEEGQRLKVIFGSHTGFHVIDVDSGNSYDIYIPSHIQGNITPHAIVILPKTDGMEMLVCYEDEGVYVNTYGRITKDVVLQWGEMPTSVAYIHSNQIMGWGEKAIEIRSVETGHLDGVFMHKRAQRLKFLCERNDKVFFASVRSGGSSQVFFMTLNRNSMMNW

[24] = tested on: Hepatocyte growth factor receptor (Homo sapiens), P08581 [M1250T]; conditions: Compound concentration 1000.0 nM
[25] = target: GABA-A receptor; anion channel (Rattus norvegicus) (UniProt O09028+P15431+P18506+P18508+P19969+P20236+P23574+P23576+P28471+P28473+P30191+P62813+P63079+P63138+Q91ZM7+Q9ES14); test: BZD (central) Eurofins-Cerep binding assay; format: protein-complex assay; parameters: ligand concentration 0.4 nM; conditions: filed as agonist, Compound concentration 10.0 uM
[26] = target: Mitogen-activated protein kinase kinase kinase kinase 3 (Homo sapiens) (UniProt Q8IVH8); conditions: Compound concentration 1000.0 nM
[27] = tested on: Epidermal growth factor receptor (Homo sapiens), P00533 [UNDEFINED MUTATION]; conditions: Compound concentration 1000.0 nM
[28] = target: Translocator protein (Rattus norvegicus) (UniProt P16257); test: BZD (peripheral) Eurofins-Cerep binding assay; parameters: ligand concentration 0.2 nM; conditions: filed as antagonist, Compound concentration 10.0 uM
[29] = target: Phosphatidylinositol 4,5-bisphosphate 3-kinase catalytic subunit beta isoform (Homo sapiens) (UniProt P42338); conditions: Compound concentration 1000.0 nM
Chain of Phosphatidylinositol 4,5-bisphosphate 3-kinase catalytic subunit beta isoform (Homo sapiens) (P42338 whole entry, looked up, canonical isoform): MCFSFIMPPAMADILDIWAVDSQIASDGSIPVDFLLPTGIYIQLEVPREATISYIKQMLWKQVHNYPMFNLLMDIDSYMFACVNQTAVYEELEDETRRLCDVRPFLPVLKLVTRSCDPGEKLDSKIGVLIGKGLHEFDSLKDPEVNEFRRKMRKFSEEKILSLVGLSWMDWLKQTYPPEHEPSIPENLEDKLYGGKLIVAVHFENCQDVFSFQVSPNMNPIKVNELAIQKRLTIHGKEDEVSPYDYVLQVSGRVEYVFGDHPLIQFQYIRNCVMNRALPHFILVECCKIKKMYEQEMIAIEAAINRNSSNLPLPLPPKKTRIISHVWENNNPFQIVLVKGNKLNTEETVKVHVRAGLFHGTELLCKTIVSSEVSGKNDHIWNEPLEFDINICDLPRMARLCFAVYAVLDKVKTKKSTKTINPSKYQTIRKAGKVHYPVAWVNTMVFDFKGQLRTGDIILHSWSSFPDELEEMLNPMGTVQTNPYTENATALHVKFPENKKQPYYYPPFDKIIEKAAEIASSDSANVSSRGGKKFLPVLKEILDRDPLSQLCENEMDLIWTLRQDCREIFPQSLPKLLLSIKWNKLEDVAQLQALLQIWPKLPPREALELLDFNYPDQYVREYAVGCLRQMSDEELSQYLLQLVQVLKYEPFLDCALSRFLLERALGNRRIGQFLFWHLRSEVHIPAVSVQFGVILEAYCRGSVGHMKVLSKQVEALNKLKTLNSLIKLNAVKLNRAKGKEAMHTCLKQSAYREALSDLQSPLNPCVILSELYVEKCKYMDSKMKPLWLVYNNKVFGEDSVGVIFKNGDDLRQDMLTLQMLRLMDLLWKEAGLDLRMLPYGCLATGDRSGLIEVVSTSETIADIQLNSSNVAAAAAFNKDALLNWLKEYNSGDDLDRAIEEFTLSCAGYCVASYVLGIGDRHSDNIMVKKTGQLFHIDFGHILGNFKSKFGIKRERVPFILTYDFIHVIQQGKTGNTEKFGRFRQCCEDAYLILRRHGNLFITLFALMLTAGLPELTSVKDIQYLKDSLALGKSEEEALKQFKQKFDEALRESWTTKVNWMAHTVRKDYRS

[30] = target: Sigma non-opioid intracellular receptor 1 (Homo sapiens, UniProt Q99720); test: sigma (non-selective) (h) Eurofins-Cerep binding assay; parameters: ligand concentration 10 nM; conditions: filed as agonist, Compound concentration 10.0 uM
[31] = target: Fibroblast growth factor receptor 2 (Homo sapiens) (UniProt P21802); conditions: Compound concentration 1000.0 nM
[32] = target: Alpha-1A adrenergic receptor (Homo sapiens) (UniProt P35348); test: Alpha1A (h) Eurofins-Cerep binding assay; parameters: ligand concentration 0.1 nM; conditions: filed as antagonist, Compound concentration 10.0 uM
[33] = target: Interleukin-1 receptor-associated kinase 4 (Homo sapiens) (UniProt Q9NWZ3); conditions: Compound concentration 1000.0 nM
[34] = tested on: Serine/threonine-protein kinase B-raf (Homo sapiens), P15056 [V600E]; conditions: Compound concentration 1000.0 nM
[35] = target: Serine/threonine-protein kinase MARK2 (Homo sapiens) (UniProt Q7KZI7); conditions: Compound concentration 1000.0 nM

Compound | inhibition at 60 min, 10 µM [1] | residual activity [2] | residual activity [3] | residual activity [4] | residual activity [5] | residual activity [6] | % Inhibition of Control Specific Binding (Mean n=2) [7] | residual activity [8] | residual activity [9] | residual activity [10] | % Inhibition of Control Specific Binding (Mean n=2) [11] | residual activity [12] | residual activity [13] | residual activity [14] | residual activity [15] | residual activity [16] | % Inhibition of Control Specific Binding (Mean n=2) [17] | % Inhibition of Control Specific Binding (Mean n=2) [18] | EC50 [19] | % Inhibition of Control Specific Binding (Mean n=2) [20] | other results
COc1ccc2c(c1)O[C@@H](c1ccc(OC)c(OC)c1)C[C@H]2NC(=O)C1(c2ccc3c(c2)OC(F)(F)O3)CC1 [A-1596586] | 35% | 100% | 78% | 85% | 65% | 79% | 3.7% | 94% | 76% | 100% | 8.7% | 100% | 86% | 100% | 99% | 97% | 9.8% | -5.5% | 28 nM (active) | -21.7% | residual activity [21]: 86%; % Inhibition of Control Specific Binding (Mean n=2) [22]: 14.3%; residual activity [23]: 71%; residual activity [24]: 95%; % Inhibition of Control Specific Binding (Mean n=2) [25]: -12.3%; residual activity [26]: 90%; residual activity [27]: 100%; % Inhibition of Control Specific Binding (Mean n=2) [28]: 95.9%; residual activity [29]: 89%; % Inhibition of Control Specific Binding (Mean n=2) [30]: 35.1%; residual activity [31]: 93%; % Inhibition of Control Specific Binding (Mean n=2) [32]: 5.7%; residual activity [33]: 82%; residual activity [34]: 100%; residual activity [35]: 92%
COc1ccc2c(c1)O[C@H](c1ccc(OC)c(OC)c1)C[C@@H]2NC(=O)C1(c2ccc3c(c2)OC(F)(F)O3)CC1 [A-1596584] | 47.3% | 100% | 100% | 83% | 78% | 82% | 3.6% | 100% | 90% | 98% | 5.1% | 99% | 91% | 89% | 100% | 97% | 11.3% | 13.7% | > 3000 nM (not active) | 4.8% | residual activity [21]: 98%; % Inhibition of Control Specific Binding (Mean n=2) [22]: 11.5%; residual activity [23]: 100%; residual activity [24]: 89%; % Inhibition of Control Specific Binding (Mean n=2) [25]: -49.6%; residual activity [26]: 100%; residual activity [27]: 100%; % Inhibition of Control Specific Binding (Mean n=2) [28]: 79.1%; residual activity [29]: 100%; % Inhibition of Control Specific Binding (Mean n=2) [30]: 33.1%; residual activity [31]: 92%; % Inhibition of Control Specific Binding (Mean n=2) [32]: 27.3%; residual activity [33]: 100%; residual activity [34]: 93%; residual activity [35]: 100%
